# Where a SMILES comes first, the peptide text is derived from it. Bridges are numbered along the chain shown (N, C = ends). [ ]: non-standard residue; d: D form. The star is where a group is joined. hPhe(3,5-F2-4-CF3) = N[C@@H](CCc1cc(F)c(C(F)(F)F)c(F)c1)C(=O)O; NPrPhe(4-CF3) = CCCN[C@@H](Cc1ccc(C(F)(F)F)cc1)C(=O)O; NMeGly(cPent) = CN[C@H](C(=O)O)C1CCCC1; Nva(3-Et) = CCC(CC)[C@H](N)C(=O)O; NMeD = CN[C@@H](CC(=O)O)C(=O)O; NMeL = CN[C@@H](CC(C)C)C(=O)O; Morpholide = C1CN(*)CCO1; Ac5c = NC1(C(=O)O)CCCC1; Aze = O=C(O)[C@@H]1CCN1; Sar = CNCC(=O)O
# What was measured:
# [1] = target: GDP-bound NRAS wild-type protein (Homo sapiens, UniProt P01111); assay: Binding to NRAS by surface plasmon resonance (SPR), KD and KD ratio to KRAS
# Summary of the method: (§1)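 SPR, 30°C: Avi-biotin RAS·GDP captured via Biotin CAPture (~100–300 RU); running buffer HBS pH 7.4, 1 mM DTT, 10 mM MgCl2, 0.01% Tween 20, 10 µM GDP, 4% DMSO. Single-cycle kinetics, 100 µL/min, 75 s injections; 1:1 model → KD.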
# [2] = tested on: human lung cancer strain NCI-H441; format: cell-based
# Summary of the method: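 Proliferation was scored by […] measured after the reagent was added to cultures kept at 37°C in 5% carbon dioxide.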
# HRAS wild-type protein = HRAS wild-type protein (Homo sapiens, UniProt P01112); assay: Binding to HRAS by surface plasmon resonance (SPR), KD and KD ratio to KRAS
# Summary of the method: as §1
# [3] = ratio of KD for GDP-bound NRAS wild-type protein to KD for KRAS
# [4] = ratio of KD for HRAS wild-type protein to KD for KRAS
# GDP-bound NRAS wild-type protein, sequence (P01111 whole entry): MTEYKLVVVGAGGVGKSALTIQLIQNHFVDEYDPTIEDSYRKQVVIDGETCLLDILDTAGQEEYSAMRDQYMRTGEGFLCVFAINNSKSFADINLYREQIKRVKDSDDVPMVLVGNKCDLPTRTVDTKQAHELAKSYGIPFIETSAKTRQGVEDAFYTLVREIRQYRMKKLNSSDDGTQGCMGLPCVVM
# HRAS wild-type protein, sequence (P01112 whole entry): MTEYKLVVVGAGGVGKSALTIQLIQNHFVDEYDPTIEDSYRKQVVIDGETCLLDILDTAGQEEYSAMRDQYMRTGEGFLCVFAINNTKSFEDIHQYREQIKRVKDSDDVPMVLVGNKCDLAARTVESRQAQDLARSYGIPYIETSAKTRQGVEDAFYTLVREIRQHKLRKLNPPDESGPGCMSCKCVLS
SMILES,IC50 [2] [nM],"NRAS /KRAS [1, 3]",HRAS /KRAS (HRAS wild-type protein; [4]),NRAS /KRAS ([1]; ratio of KD value for GDP-bound NRAS wild-type protein to KD value for KRAS (SPR)),HRAS /KRAS (HRAS wild-type protein; ratio of KD value for HRAS wild-type protein to KD value for KRAS (SPR)),NRAS /KRAS ([1]; ratio of the KD value with respect to GDP-bound NRAS wild-type protein to the KD value with respect to KRAS),HRAS /KRAS (HRAS wild-type protein; ratio of the KD value with respect to HRAS wild-type protein to the KD value with respect to KRAS)
CCO[C@@H]1C[C@H]2C(=O)NC3(CCC3)C(=O)N(C)[C@@H](C3CCCC3)C(=O)N(C)[C@H](C(=O)N3CCOCC3)CC(=O)N(C)[C@@H](CC(C)C)C(=O)N[C@@H]([C@@H](C)CC)C(=O)N(C)CC(=O)N(C)[C@H]3C[C@@H](C)CCN(C3=O)[C@@H](Cc3ccc(C(F)(F)F)cc3)C(=O)N(C)CC(=O)N[C@@H](CCc3cc(F)c(C(F)(F)F)c(F)c3)C(=O)N2C1 [PP1025],10.7,C (A compound having a KD ratio of 0.1 or more and less than 3 is denoted as C),B (a compound having 3 or more and less than 10 is denoted as B),–,–,–,–
CCO[C@@H]1C[C@H]2C(=O)NC3(CCC3)C(=O)N(C)[C@@H](C3CCCC3)C(=O)N(C)[C@H](C(=O)N3CCOCC3)CC(=O)N(C)[C@@H](COC)C(=O)N[C@@H]([C@@H](C)CC)C(=O)N(C)CC(=O)N(C)[C@H]3CCCCCN(C3=O)[C@@H](Cc3ccc(C(F)(F)F)cc3)C(=O)N(C)CC(=O)N[C@@H](CCc3ccc(C(F)(F)F)c(Cl)c3)C(=O)N2C1 [PP0849],35.7,B (a compound having 3 or more and less than 10 is denoted as B),B (a compound having 3 or more and less than 10 is denoted as B),–,–,–,–
CCO[C@@H]1C[C@H]2C(=O)NC3(CC(C)(C)C3)C(=O)N(C)[C@@H](C3CCCC3)C(=O)N(C)[C@H](C(=O)N(C)C)CC(=O)N(C)[C@@H](COC)C(=O)N[C@@H]([C@@H](C)CC)C(=O)N(C)CC(=O)N(C)[C@H]3C/C=C\CCN(C3=O)[C@@H](Cc3ccc(C(F)(F)F)cc3)C(=O)N(C)CC(=O)N[C@@H](CCc3ccc(C(F)(F)F)c(Cl)c3)C(=O)N2C1 [PP1753],5.9,–,–,A (a compound having 10 or more and less than 20 is denoted as A),A (a compound having 10 or more and less than 20 is denoted as A),–,–
"CCCN1C(=O)CN(C)C(=O)CN(C)C(=O)[C@H](C(CC)CC)NC(=O)[C@H](CC(C)C)N(C)C(=O)C[C@@H](C(=O)N2CCOCC2)N(C)C(=O)[C@H](C2CCCC2)N(C)C(=O)C2(CCCC2)NC(=O)[C@@H]2CCCN2C(=O)[C@H](CCc2cc(F)c(C(F)(F)F)c(F)c2)NC(=O)CN(C)C(=O)[C@@H]1Cc1ccc(C(F)(F)F)cc1 [PP0768] ([NMeL][Nva(3-Et)][Sar][Sar][NPrPhe(4-CF3)][Sar][hPhe(3,5-F2-4-CF3)]P[Ac5c][NMeGly(cPent)][NMeD]-Morpholide; lactam N-11)",36.1,B (a compound having 3 or more and less than 10 is denoted as B),C (A compound having a KD ratio of 0.1 or more and less than 3 is denoted as C),–,–,–,–
CCO[C@@H]1C[C@H]2C(=O)NC3(CC(C)(C)C3)C(=O)N(C)[C@@H](C(CC)CC)C(=O)N(C)[C@H](C(=O)N(C)C)CC(=O)N(C)[C@H]3CCCC/C=C/c4ccc(cc4)C[C@@H](C(=O)N(C)CC(=O)N[C@@H](CCc4ccc(Cl)c(Cl)c4)C(=O)N2C1)N1CC/C=C\C[C@@H](C1=O)N(C)C(=O)CN(C)C(=O)[C@H]([C@@H](C)CC)NC3=O [PP3045],15.9,AA (a compound having 20 or more is denoted as AA),A (a compound having 10 or more and less than 20 is denoted as A),–,–,–,–

# Second part, led by results:
IC50 [2] [nM],SMILES,"NRAS /KRAS [1, 3]",HRAS /KRAS (HRAS wild-type protein; [4]),NRAS /KRAS ([1]; ratio of KD value for GDP-bound NRAS wild-type protein to KD value for KRAS (SPR)),HRAS /KRAS (HRAS wild-type protein; ratio of KD value for HRAS wild-type protein to KD value for KRAS (SPR)),NRAS /KRAS ([1]; ratio of the KD value with respect to GDP-bound NRAS wild-type protein to the KD value with respect to KRAS),HRAS /KRAS (HRAS wild-type protein; ratio of the KD value with respect to HRAS wild-type protein to the KD value with respect to KRAS)
22.4,CCC(CC)[C@H]1C(=O)N(C)[C@H](C(=O)N(C)C)CC(=O)N(C)[C@@H](COC)C(=O)N[C@@H]([C@@H](C)CC)C(=O)N(C)CC(=O)N(C)[C@H]2C/C=C\CCN(C2=O)[C@@H](Cc2ccc(C(F)(F)F)cc2)C(=O)N(C)CC(=O)N[C@@H](CCc2cc(F)c(C(F)(F)F)c(F)c2)C(=O)N2CCCCC[C@H]2C(=O)NC2(CC(C)(C)C2)C(=O)N1C [PP3030],AA (a compound having 20 or more is denoted as AA),A (a compound having 10 or more and less than 20 is denoted as A),–,–,–,–
12.5,"CCCN1C(=O)[C@@H]2CCN2C(=O)CN(C)C(=O)[C@H]([C@@H](C)CC)NC(=O)[C@H](CC(C)C)N(C)C(=O)C[C@@H](C(=O)N2CCOCC2)N(C)C(=O)[C@H](C2CCCC2)N(C)C(=O)C2(CCCC2)NC(=O)[C@@H]2CCCN2C(=O)[C@H](CCc2cc(F)c(C(F)(F)F)c(F)c2)NC(=O)CN(C)C(=O)[C@@H]1Cc1ccc(C(F)(F)F)cc1 [PP0789] ([NMeL]I[Sar][Aze][NPrPhe(4-CF3)][Sar][hPhe(3,5-F2-4-CF3)]P[Ac5c][NMeGly(cPent)][NMeD]-Morpholide; lactam N-11)",C (A compound having a KD ratio of 0.1 or more and less than 3 is denoted as C),B (a compound having 3 or more and less than 10 is denoted as B),–,–,–,–
23.6,CC[C@H](C)[C@@H]1NC(=O)[C@H](CC(C)C)N(C)C(=O)C[C@@H](C(=O)N(C)CC)N(C)C(=O)[C@H](C2CCCC2)N(C)C(=O)C2(CCC2)NC(=O)[C@@H]2C[C@@H](C)CN2C(=O)[C@H](CCc2ccc(C(F)(F)F)c(OC)c2)NC(=O)CN(C)C(=O)[C@H](Cc2ccc(C)cc2)N2CC/C=C\C[C@@H](C2=O)N(C)C(=O)CN(C)C1=O [PP1907],–,–,–,–,AA (a compound having 20 or more is denoted as AA),A (a compound having 10 or more and less than 20 is denoted as A)

# — EP4603105A1, “PHARMACEUTICAL COMPOSITION CONTAINING CYCLIC COMPOUND HAVING SELECTIVE KRAS INHIBITORY EFFECT AGAINST HRAS AND NRAS” (CHUGAI SEIYAKU KABUSHIKI KAISHA, priority 2022, dated 2024)
